From publication PMC10817945, “Design of a novel analogue peptide with potent antibiofilm activities against Staphylococcus aureus based upon a sapecin B-derived peptide” (Scientific Reports, 2024)
In brackets after ≈: the same amount, converted by molar mass. Several values for one entry are separate records, joined by “and”; a condition that tells them apart may be missing. Equal entries are not always repeated. Where two headings read alike, the source gives them in different places.

How the values were obtained:
S. aureus isolates [1] = assay: Kirby-Bauer disk diffusion antimicrobial susceptibility testing; format: cell-based, Staphylococcus aureus; further: key: R: Resistant; S: Susceptible
Text: Three MRSA, two MSSA clinical isolates, and one S. aureus reference strain (ATCC 25923) were investigated in this study. […] The presence of the mecA/mecC gene was studied by PCR in all cefoxitin resistant isolates[42],[43].

Human red blood cells = assay: Hemolysis assay; details: human erythrocytes, 1 h, 37 °C
Description: The assay was performed using fresh human blood samples containing citrate phosphate dextrose anticoagulant collected from a blood bank (Iranian Blood Transfusion Organization). Human red blood cells (RBC) were centrifuged at 1700×g for 5 min; then the supernatant was removed and the erythrocyte pellet was diluted 1:100 in PBS to obtain a 1% erythrocyte suspension. […] Then, 50 μl of the 1% erythrocyte suspension and 50 μl of the peptides were mixed and added to wells of a 96-well polypropylene conical bottom microplate and incubated at 37 °C for 1 h. Following centrifugation of the samples at 1700×g for 5 min, 50 μl of the supernatant was transferred to wells of a 96-well flat-bottom plate for the absorbance measurement at 405 nm in a microplate reader. Identical volumes of Triton X-100 (1%) and PBS were used as positive and negative controls, respectively. The selectivity indexes (SI) were also determined as a toxicity indicator.

S. aureus isolates [2] = assay: microbe, parasite or virus in culture; format: cell-based, Staphylococcus aureus
Description: (§1) Minimum inhibitory concentrations (MIC) of KLK, mKLK, and vancomycin were determined using microdilution broth assay according to clinical and laboratory standards institute (CLSI) guidelines with some modifications. Briefly, overnight cultures were diluted in Muller-Hinton broth (MHB; Merck, Germany) to achieve a final density of 5 × 10^5 CFU/ml. A volume of 100 μl of bacterial suspension was added to wells of sterile 96-well plates containing 100 μl of two-fold peptide dilutions, ranging from 0.25 to 256 µg/ml. Vancomycin was used as a positive control in this assay. […] MBC was determined by removing samples from wells with no visible growth, serially diluting, and plating on Mueller Hinton (MH) agar plates for CFU counting.

S. aureus isolates [3] = format: cell-based, Staphylococcus aureus
Description: as §1

[4] = tested on: one MRSA and reference strain (ATCC25923); assay: Time-kill kinetics assay
Description: The peptide-free control was included for each strain. Following incubation at 37 °C for 0, 0.25, 0.5, 1, 2, 4, 5, and 24 h, each sample was serially diluted, plated onto Mueller–Hinton (MH) agar (Merck, Germany) plates and incubated at 37 °C. The viable plate count method was performed after incubation for 24 h and the counts were expressed as Log CFU/ml[44].

[5] = tested on: clinical Salmonella isolates; set-up: method as in PMID 34361810; details: cited from earlier work
[6] = tested on: drug resistant Mycobacterium abscessus isolates; set-up: method as in ref 33 (Sudadech et al.); details: ref 33 (Sudadech et al.), cited from earlier work

CC1(C)S[C@@H]2[C@H](NC(=O)[C@H](N)c3ccccc3)C(=O)N2[C@H]1C(=O)O [AMP, Ampicilln]
Antimicrobial susceptibility testing (S. aureus isolates [1]; MRSA-1): R | Antimicrobial susceptibility testing (S. aureus isolates [1]; MRSA-2): R | Antimicrobial susceptibility testing (S. aureus isolates [1]; MRSA-3): R | Antimicrobial susceptibility testing (S. aureus isolates [1]; MSSA-1): S | Antimicrobial susceptibility testing (S. aureus isolates [1]; MSSA-2): S

O=C(N[C@H](CO)[C@H](O)c1ccc([N+](=O)[O-])cc1)C(Cl)Cl [C, Chloramphenicol]
Antimicrobial susceptibility testing (S. aureus isolates [1]; MRSA-1): S | Antimicrobial susceptibility testing (S. aureus isolates [1]; MRSA-2): S | Antimicrobial susceptibility testing (S. aureus isolates [1]; MRSA-3): S | Antimicrobial susceptibility testing (S. aureus isolates [1]; MSSA-1): S | Antimicrobial susceptibility testing (S. aureus isolates [1]; MSSA-2): S

CC[C@H]1OC(=O)[C@H](C)[C@@H](O[C@H]2C[C@@](C)(OC)[C@@H](O)[C@H](C)O2)[C@H](C)[C@@H](O[C@@H]2O[C@H](C)C[C@H](N(C)C)[C@H]2O)[C@](C)(O)C[C@@H](C)C(=O)[C@H](C)[C@@H](O)[C@]1(C)O [E, Erythromycin]
Antimicrobial susceptibility testing (S. aureus isolates [1]; MRSA-1): S | Antimicrobial susceptibility testing (S. aureus isolates [1]; MRSA-2): S | Antimicrobial susceptibility testing (S. aureus isolates [1]; MRSA-3): S | Antimicrobial susceptibility testing (S. aureus isolates [1]; MSSA-1): S | Antimicrobial susceptibility testing (S. aureus isolates [1]; MSSA-2): S

CO/N=C(\C(=O)N[C@@H]1C(=O)N2C(C(=O)[O-])=C(C[N+]3(C)CCCC3)CS[C@H]12)c1csc(N)n1 [FEP, Cefepime]
Antimicrobial susceptibility testing (S. aureus isolates [1]; MRSA-1): R | Antimicrobial susceptibility testing (S. aureus isolates [1]; MRSA-2): R | Antimicrobial susceptibility testing (S. aureus isolates [1]; MRSA-3): R | Antimicrobial susceptibility testing (S. aureus isolates [1]; MSSA-1): S | Antimicrobial susceptibility testing (S. aureus isolates [1]; MSSA-2): S

CO[C@@]1(NC(=O)Cc2cccs2)C(=O)N2C(C(=O)O)=C(COC(N)=O)CS[C@@H]21 [FOX, Cefoxicitin]
Antimicrobial susceptibility testing (S. aureus isolates [1]; MRSA-1): R | Antimicrobial susceptibility testing (S. aureus isolates [1]; MRSA-2): R | Antimicrobial susceptibility testing (S. aureus isolates [1]; MRSA-3): R | Antimicrobial susceptibility testing (S. aureus isolates [1]; MSSA-1): S | Antimicrobial susceptibility testing (S. aureus isolates [1]; MSSA-2): S

CNC(C)C1CCC(N)C(OC2C(N)CC(N)C(OC3OCC(C)(O)C(NC)C3O)C2O)O1 (centres unmarked) [GEN, Gentamicin]
Antimicrobial susceptibility testing (S. aureus isolates [1]; MRSA-1): S | Antimicrobial susceptibility testing (S. aureus isolates [1]; MRSA-2): S | Antimicrobial susceptibility testing (S. aureus isolates [1]; MRSA-3): S | Antimicrobial susceptibility testing (S. aureus isolates [1]; MSSA-1): S | Antimicrobial susceptibility testing (S. aureus isolates [1]; MSSA-2): S

CC[C@H](C)[C@H](NC(=O)[C@H](CCCCN)NC(=O)[C@H](CCC(=O)O)NC(=O)[C@H](CCCCN)NC(=O)[C@H](CO)NC(=O)[C@H](CCCCN)NC(=O)[C@H](CCCNC(=N)N)NC(=O)[C@H](Cc1ccccc1)NC(=O)[C@H](Cc1ccccc1)NC(=O)[C@H](CC(=O)O)NC(=O)CNC(=O)[C@H](CC(C)C)NC(=O)[C@@H](N)CC(C)C)C(=O)NCC(=O)N[C@@H](CCCCN)C(=O)N[C@@H](CCC(=O)O)C(=O)N[C@@H](Cc1ccccc1)C(=O)N[C@@H](CCCCN)C(=O)N[C@@H](CCCNC(=N)N)C(=O)N[C@H](C(=O)N[C@H](C(=O)N[C@@H](CCC(N)=O)C(=O)N[C@@H](CCCNC(=N)N)C(=O)N[C@H](C(=O)N[C@@H](CCCCN)C(=O)N[C@@H](CC(=O)O)C(=O)N[C@@H](Cc1ccccc1)C(=O)N[C@@H](CC(C)C)C(=O)N[C@@H](CCCNC(=N)N)C(=O)N[C@@H](CC(N)=O)C(=O)N[C@@H](CC(C)C)C(=O)N[C@H](C(=O)N1CCC[C@H]1C(=O)N[C@@H](CCCNC(=N)N)C(=O)N[C@H](C(=O)N[C@@H](CCC(=O)O)C(=O)N[C@@H](CO)C(=O)O)[C@@H](C)O)C(C)C)[C@@H](C)CC)C(C)C)[C@@H](C)CC [LL-37]
HC50 (Human red blood cells): 150 µM and 673.5 µg/ml

CC(=O)NC[C@H]1CN(c2ccc(N3CCOCC3)c(F)c2)C(=O)O1 [LZD, Linezolide]
Antimicrobial susceptibility testing (S. aureus isolates [1]; MRSA-1): S | Antimicrobial susceptibility testing (S. aureus isolates [1]; MRSA-2): S | Antimicrobial susceptibility testing (S. aureus isolates [1]; MRSA-3): S | Antimicrobial susceptibility testing (S. aureus isolates [1]; MSSA-1): S | Antimicrobial susceptibility testing (S. aureus isolates [1]; MSSA-2): S

CO[C@H]1/C=C/O[C@@]2(C)Oc3c(C)c(O)c4c(O)c(c(/C=N/N5CCN(C)CC5)c(O)c4c3C2=O)NC(=O)/C(C)=C\C=C\[C@H](C)[C@H](O)[C@@H](C)[C@@H](O)[C@@H](C)[C@H](OC(C)=O)[C@@H]1C [RP, Rifampicin]
Antimicrobial susceptibility testing (S. aureus isolates [1]; MRSA-1): S | Antimicrobial susceptibility testing (S. aureus isolates [1]; MRSA-2): S | Antimicrobial susceptibility testing (S. aureus isolates [1]; MRSA-3): S | Antimicrobial susceptibility testing (S. aureus isolates [1]; MSSA-1): S | Antimicrobial susceptibility testing (S. aureus isolates [1]; MSSA-2): S

CN(C)[C@@H]1C(O)=C(C(N)=O)C(=O)[C@@]2(O)C(O)=C3C(=O)c4c(O)cccc4[C@@](C)(O)[C@H]3C[C@@H]12 [TE, Tetracycline]
Antimicrobial susceptibility testing (S. aureus isolates [1]; MRSA-1): R | Antimicrobial susceptibility testing (S. aureus isolates [1]; MRSA-2): R | Antimicrobial susceptibility testing (S. aureus isolates [1]; MRSA-3): R | Antimicrobial susceptibility testing (S. aureus isolates [1]; MSSA-1): R | Antimicrobial susceptibility testing (S. aureus isolates [1]; MSSA-2): R

CN[C@H](CC(C)C)C(=O)N[C@H]1C(=O)N[C@@H](CC(N)=O)C(=O)N[C@H]2C(=O)N[C@H]3C(=O)N[C@H](C(=O)N[C@H](C(=O)O)c4cc(O)cc(O)c4-c4cc3ccc4O)[C@H](O)c3ccc(c(Cl)c3)Oc3cc2cc(c3O[C@@H]2O[C@H](CO)[C@@H](O)[C@H](O)[C@H]2O[C@H]2C[C@](C)(N)[C@H](O)[C@H](C)O2)Oc2ccc(cc2Cl)[C@H]1O [vancomycin, Vancomycin]
MIC (S. aureus isolates [2]; ATCC25923): 0.25 µg/mL (≈ 0.173 µM) | MIC (S. aureus isolates [2]; MRSA-1): 0.25 µg/mL (≈ 0.173 µM) | MIC (S. aureus isolates [2]; MRSA-2): 0.5 µg/mL (≈ 0.345 µM) | MIC (S. aureus isolates [2]; MRSA-3): 0.5 µg/mL (≈ 0.345 µM) | MIC (S. aureus isolates [2]; MSSA-1): 0.25 µg/mL (≈ 0.173 µM) | MIC (S. aureus isolates [2]; MSSA-2): 0.25 µg/mL (≈ 0.173 µM) | MIC (S. aureus isolates [2]; Staphylococcus aureus): 0.25 to 0.5 µg/mL (≈ 0.173 to 0.345 µM) | MBC (S. aureus isolates [3]; ATCC25923): 0.25 µg/mL (≈ 0.173 µM) | MBC (S. aureus isolates [3]; MRSA-1): 0.5 µg/mL (≈ 0.345 µM) | MBC (S. aureus isolates [3]; MRSA-2): 0.5 µg/mL (≈ 0.345 µM) | MBC (S. aureus isolates [3]; MRSA-3): 0.5 µg/mL (≈ 0.345 µM) | MBC (S. aureus isolates [3]; MSSA-1): 0.25 µg/mL (≈ 0.173 µM) | MBC (S. aureus isolates [3]; MSSA-2): 0.25 µg/mL (≈ 0.173 µM) | time after which no regrowth was observed ([4]; ATCC 25923, 1 × MIC (0.25 μg/ml)): 24 h | reduction in viable cell count ([4]; ATCC 25923, 1 × MIC, during 4 h): ~ 3 log | time after which no regrowth was observed ([4]; ATCC 25923, 2 × MIC): 24 h | reduction in viable cell count ([4]; ATCC 25923, 2 × MIC, within 4 h): ~ 4 log | time after which no regrowth was observed ([4]; MRSA, 1 × MIC): 24 h | reduction in viable cell count ([4]; MRSA, 1 × MIC (0.5 μg/ml), during 5 h): ~ 2 log | time after which no growth was observed ([4]; MRSA, 2 × MIC (1 μg/ml)): 24 h | reduction in viable cell count ([4]; MRSA, 2 × MIC (1 μg/ml), within 4 h): ~ 2 log | reduction in viable cell count ([4]; MRSA, 2 × MIC (1 μg/ml), within 5 h): ~3 log | Antimicrobial susceptibility testing (S. aureus isolates [1]; MRSA-1): S | Antimicrobial susceptibility testing (S. aureus isolates [1]; MRSA-2): S | Antimicrobial susceptibility testing (S. aureus isolates [1]; MRSA-3): S | Antimicrobial susceptibility testing (S. aureus isolates [1]; MSSA-1): S | Antimicrobial susceptibility testing (S. aureus isolates [1]; MSSA-2): S

Amoxicillin/clavulanic acid [AMC]
Antimicrobial susceptibility testing (S. aureus isolates [1]; MRSA-1): R | Antimicrobial susceptibility testing (S. aureus isolates [1]; MRSA-2): R | Antimicrobial susceptibility testing (S. aureus isolates [1]; MRSA-3): R | Antimicrobial susceptibility testing (S. aureus isolates [1]; MSSA-1): S | Antimicrobial susceptibility testing (S. aureus isolates [1]; MSSA-2): S

KLKLLLLLKL [KLK1, variant of KLK]
MIC [5]: > 256 µM | killing ([6]; against 62.5% of the tested isolates within 24 h): ~ 99% | MIC ([6]; drug resistant Mycobacterium abscessus isolates): < 50 µg/mL

Trimethoprim/sulphamethoxazole [SXT]
Antimicrobial susceptibility testing (S. aureus isolates [1]; MRSA-1): S | Antimicrobial susceptibility testing (S. aureus isolates [1]; MRSA-2): S | Antimicrobial susceptibility testing (S. aureus isolates [1]; MRSA-3): R | Antimicrobial susceptibility testing (S. aureus isolates [1]; MSSA-1): S | Antimicrobial susceptibility testing (S. aureus isolates [1]; MSSA-2): S
